The values that follow are results of earlier work, collected in patent US20120142546A1, “HYPOMETHYLATED GENES IN CANCER” (THE JOHNS HOPKINS UNIVERSITY, priority 2007, published 2012).

The series concerns cancers involving the lung, esophagus, or pleura.

As for `Nc1ncn([C@H]2C[C@H](O)[C@@H](CO)O2)c(=O)n1` [5-aza-2′-deoxycytidine], the “NY-ESO-1 and MAGEA3 expression in treated patients” value was “upregulated in a proportion of patients”.
